For assay [1], the system named is HPV-31-infected CIN612 9E keratinocytes. The experiment in a line: Long-term study, effect on cell proliferation of CIN612 9E cells over 9 passages. It counts as cell-based, human papilloma virus. Here is the method: HPV-31 infected cells (3×10^6) were dispensed into 14.5 cm dishes containing fresh E medium and 1×10^6 cells of mitomycin C-treated 3T3 fibroblast feeders. The dishes were incubated in a CO2 incubator under 5% CO2 at 37° C. in 100% humidity. Human A431 epithelial cancer cells were used as HPV-uninfected negative controls. After 6 hr incubation, the cell culture medium was removed and fresh E medium containing 0.85 g/L NaHCO3 and a test compound at concentrations of 10 and 3.3 μg/mL, or control (interferon γ at 200 IU/mL) were added. For each concentration, 4 dishes were prepared. The dishes were incubated at 37° C. in a CO2 incubator. The culture medium was replaced to new E medium containing each concentration of the test compound or control in every 72 hrs. After seven days, or when untreated cells became confluent, one dish of each group was harvested for DNA/RNA extraction, followed by Southern/Northern Blot analysis; and one dish was trypsinized, cell number were determined and cells were seeded in three new dishes, treated and cultured as described above. This procedure was repeated for 9 passages. During these passages, morphology of cells and cell density were monitored.
Effect on cell proliferation. Cell numbers in the dishes harvested were determined in a Neubauer hematocytometer. The multiplication factor was determined at every step of passage. The cell number of each culture at the end of the passage was divided by the number of seeded cells at the start of each passage. The end point was reached when keratinocytes treated with a test compound stopped growing. Stop of cell growth was defined as a multiplication factor of no greater than 1.

Assay [2] shares this test system. Briefly: Short-term study, effect on cell proliferation of HPV-31-infected keratinocytes. It counts as cell-based, human papilloma virus. Particulars: Human papillomavirus, Keratinocyte; 72 hrs, 37° C.; 50% of uninhibited growth. Here is the method:
The inhibitory activities of optically active (−)-enantiomer 1A against human papilloma virus were evaluated using HPV-31-infected CIN612 9E keratinocytes (Meyers et al., Science 1992, 257, 971-973).
Effect on cell proliferation. HPV-31 infected cells were seeded in 96-well plates containing 1×10^6 mitomycin C treated 3T3 cells (1×10^4 cells/well), at a density of 0.5×10^6 cells per plate (0.5×10^4 cells/well) in E medium. After the plates were incubated in a CO2 incubator under 5% CO2 at 37° C. in 100% humidity for six hrs, the cell culture medium was removed and fresh E medium containing 0.85 g/L NaHCO3 and a test compound at a series of concentrations (0, 0.5, 1, 2, 4, 8, 16, 32, 64, and 128 μg/mL), or positive control (interferon γ at 200 IU/mL) was added. […] After the plates were dried on blotting paper upside down overnight, 0.1 mL of ethanol/acetic acid (99:1) was added to each well and optical density at 595 nm was determined in an ELISA reader.
Dose response curves were established by plotting growth against concentrations of the test compound or control. ICso values were determined from the dose response curves from crossing points of the dose response curves with a line parallel to the x-axis corresponding to 50% of uninhibited growth.

Converted amounts (≈) assume the structure as drawn. “Also recorded” adds a separate entry of the source.

Take `S=C(S)OC1CC2CC1C1CCCC21` (single isomer, unassigned; (-)) [(−)-Enantiomer 1A, (−)-O-exo/C-exo-tricyclo[5.2.1.0^2,6]-dec-9-yl-xanthic acid]: in assay [1] (3.3 μg/mL), the growth entry is “reduction of the growth rate; also recorded: the cells almost stopped growing after 9 passages”. For the same compound, the cell proliferation entry in assay [1] (10 μg/mL) was “significant reduction of cell proliferation”. For the same compound, the multiplication factor in assay [1] (10 μg/mL, first five passages) is on record as 2-2.5. Besides, in assay [2], the response was half-maximal at 16 µg/mL (≈ 70.1 µM) (EC50).

As usually defined, the EC50 is the concentration giving half of the maximal effect. Lower therefore signals greater potency.
